# Results taken from patent US8748491B2, “Dietary and pharmaceutical compositions containing tricyclic diterpenes and their derivatives and their uses” (priority 2006, dated 2014).
# Assays:
# [1] = target: T1, human serotonin re-uptake transporter (hSERT) (Homo sapiens, UniProt P31645); experiment: Inhibition of tritiated serotonin uptake into transfected HEK-293 cells; assay type: cell-based; settings: HEK-293 cells expressing hSERT; 20 nM [3H] serotonin, 40 min, 37° C.; mean ± s.e.m.
# T1 construct: host or cells: HEK-293
# T1 sequence (P31645 whole entry): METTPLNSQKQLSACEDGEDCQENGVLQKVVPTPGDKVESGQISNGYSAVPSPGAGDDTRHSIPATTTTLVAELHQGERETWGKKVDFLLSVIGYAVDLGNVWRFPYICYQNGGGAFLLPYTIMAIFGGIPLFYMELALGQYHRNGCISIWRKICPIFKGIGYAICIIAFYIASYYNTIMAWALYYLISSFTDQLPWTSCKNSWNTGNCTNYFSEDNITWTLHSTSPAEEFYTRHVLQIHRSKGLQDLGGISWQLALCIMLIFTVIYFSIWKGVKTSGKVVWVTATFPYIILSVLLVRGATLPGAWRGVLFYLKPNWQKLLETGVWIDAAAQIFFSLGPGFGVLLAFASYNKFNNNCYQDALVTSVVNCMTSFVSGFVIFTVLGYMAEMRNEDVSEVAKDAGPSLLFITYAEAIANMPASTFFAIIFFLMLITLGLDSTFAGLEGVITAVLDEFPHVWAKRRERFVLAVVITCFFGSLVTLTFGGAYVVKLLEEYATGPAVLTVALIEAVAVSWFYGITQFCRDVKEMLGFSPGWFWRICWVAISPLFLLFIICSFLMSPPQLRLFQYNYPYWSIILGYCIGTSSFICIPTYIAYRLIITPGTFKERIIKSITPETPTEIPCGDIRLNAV
# From the text: HEK-293 cells stably expressing the human serotonin re-uptake transporter (hSERT) were obtained from R. Blakely, Vanderbilt University, USA. The cells were routinely grown in Dulbecco's Modified Eagle's Medium (Bioconcept) containing 10% fetal calf serum, penicillin, streptomycin, L-glutamine and the antibiotic G418 and passaged by trypsinisation. On the day of assay, cells from 80% confluent flasks were harvested by gentle washing with warm phosphate buffered saline (PBS). […] Serotonin uptake into the cells was determined by addition of radio-labelled [^3H] serotonin (GE Healthcare) at a concentration of 20 nM, and incubation for 40 minutes at 37° C. with gentle shaking. At the end of this time unincorporated label was removed by filtration though Unifilter 96 GF/B plates (Perkin Elmer) using a Tomtec Mach III M cell harvester. The incorporated serotonin retained on the plates was quantified by liquid scintillation counting using Microscint-40/Topcount (Perkin Elmer).
# [2] = target: T2, Monoamine oxidase B (MAO-B) (Homo sapiens, UniProt P27338); experiment: Monoamine oxidase B inhibition (benzylamine substrate, H2O2/vanillic acid/HRP readout); assay type: biochemical
# T2 sequence (P27338 1-520): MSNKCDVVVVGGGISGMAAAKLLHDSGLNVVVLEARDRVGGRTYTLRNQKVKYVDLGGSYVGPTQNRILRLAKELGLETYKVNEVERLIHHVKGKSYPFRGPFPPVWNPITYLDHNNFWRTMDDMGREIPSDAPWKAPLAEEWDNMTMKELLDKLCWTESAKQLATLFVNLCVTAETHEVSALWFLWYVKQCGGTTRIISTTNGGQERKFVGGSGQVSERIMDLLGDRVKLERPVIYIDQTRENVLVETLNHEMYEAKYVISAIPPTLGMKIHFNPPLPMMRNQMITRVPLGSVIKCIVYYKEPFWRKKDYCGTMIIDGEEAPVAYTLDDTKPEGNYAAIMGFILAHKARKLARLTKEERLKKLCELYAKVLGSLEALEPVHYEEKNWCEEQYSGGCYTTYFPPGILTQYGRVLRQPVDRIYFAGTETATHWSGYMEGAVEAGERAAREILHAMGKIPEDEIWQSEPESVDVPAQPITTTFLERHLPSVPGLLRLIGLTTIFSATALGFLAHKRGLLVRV
# Procedure: The organic amines p-tyramine or benzylamine were used as substrates for the Monoamine oxidase A (MAO-A) and B (MAO-B) enzymes respectively. The H2O2 produced by this reaction was quantified by reaction with vanillic acid, catalysed by horse radish peroxidase (HRP).
# The reactions were carried out in polystyrene microtitre plates. The MAO enzymes (final concentration 2 U/ml) were mixed with either p-tyramine (Sigma, final concentration 0.5 mM) or benzylamine (Sigma, final concentration 0.5 mM) as appropriate and the chromogenic solution (containing vanillic acid (Fluka), 4-aminoantipyrine (Fluka) and horse radish peroxidase (Sigma), final concentrations 0.25 mM, 0.125 mM and 1 U/ml respectively) in 0.2 M potassium phosphate buffer, pH 7.6. The reactions were followed in a microtitre plate absorbance reader e.g. Spectramax M5 (Molecular Devices Corporation). Absorbance readings at 495 nm were taken every 15 seconds for 40 minutes and the initial reaction velocities calculated by linear regression using SOFTmaxPro (Molecular Devices Corporation).
# The effect of tricyclic diterpenes and their derivatives according to formula I on the monoamine oxidase enzymes was determined by their inclusion in the assay at a range of concentrations between 0.03 and 100 μM for 10 minutes prior to and during the incubation with substrate. To determine the effect of the compounds on the HRP catalyzed portion of the reaction, the MAO enzyme was replaced by H2O2 (Molecular Probes, final concentration 0.2 mM). The reactions containing MAO-A and MAO-B were both inhibited by tricyclic diterpenes and their derivatives according to formula I in a dose-dependent manner, whilst the control reaction, was unaffected. The measured IC50 values for inhibition of monoamine oxidase activity by carnosic acid, carnosic acid-12-methyl ether and 20-deoxo-carnosol are shown in Table 3.
# [3] = system: mouse; experiment: Porsolt's forced swim test (FST); assay type: in vivo
# Procedure: Mice were individually placed in cylinders (24.5 cm height, 19.5 cm internal diameter) containing 13.5 cm depth of water (22±0.5° C.) for a period of 6 minutes, behavioural parameters of interest being analysed during the final 4 minutes of the test, since the first 2 minutes include vigorous activity. Six cylinders were placed in a Perspex box, thus enabling six mice to be tested simultaneously.
# Automatic monitoring of swim tests was enabled through the use of VideoMot2 software (TSE Technical and Scientific Equipment GmbH, Bad Homburg, Germany). All to experiments were observed via a black and white CCD camera. The rest:locomotion and stop:start thresholds, as determined by setting parameters in the software programme, determine the number of pixels which must change for a movement to be registered, enabling the software to determine whether a mouse is swimming or resting. The parameters which are automatically recorded include: rest time and locomotion time (ms), % rest and % locomotion, distance travelled (cm), speed of travel (cm/s) and number of stops.
# Data were analysed by comparing treated groups with the untreated control group using Fisher's PLSD (StatView, SAS Institute Inc., Cary, N.C., USA)
# [4] = system: mouse; experiment: Marble burying test; assay type: in vivo; settings: mouse; for NUMBER OF MARBLES COVERED BY SAWDUST % change from control / NUMBER OF MARBLES COVERED BY SAWDUST mean ± s.e.m.: Table 5
# Procedure: The method applied here follows that described by Broekkamp et al., supra. Mice (n=15 per treatment group) were individually placed in transparent plastic cages (33×21×18 cm) with 5 cm of sawdust on the floor and 25 marbles (diameter 1 cm) grouped in the centre of the cage. A second, up-turned, cage served as a lid. The number of marbles covered by sawdust (by at least two-thirds) was counted at the end of the 30-minute test period. Tests were performed by investigators blind to the drug treatment protocol.
# Prior to testing, all test cages and marbles were “impregnated” by leaving 10 naive mice in each cage for 15 minutes. […]
# Data were analysed by comparing treated groups with vehicle control using unpaired Student's t-tests.
compound,measurement,setting,value
"CC(C)c1cc2c(c(O)c1O)[C@@]1(C(=O)O)CCCC(C)(C)[C@@H]1CC2 [Carnosic acid, carnosic acid]",IC50,[1],36.4 ± 6.8 µM
same,IC50,[2],8.6 ± 0.6 µM
same,Duration of immobility (% change from control),"[3]; 10 mg/kg i.p., −30 min",−29%
same,Duration of immobility (% change from control),"[3]; 20 mg/kg i.p., −30 min",−30%
same,Duration of immobility (% change from control),"[3]; 30 mg/kg i.p., −30 min",−29%
same,Duration of immobility (% change from control),"[3]; 200 mg/kg p.o., −24, −5, −1 h",−38%
same,immobility behaviour (in words),"[3]; all doses tested, i.p. and p.o. administration",significantly reduced immobility behaviour
same,NUMBER OF MARBLES COVERED BY SAWDUST % change from control,[4]; 3 mg/kg i.p. −30 min,−8%
same,NUMBER OF MARBLES COVERED BY SAWDUST mean ± s.e.m.,[4]; 3 mg/kg i.p. −30 min,21.9 ± 1.3
same,NUMBER OF MARBLES COVERED BY SAWDUST % change from control,[4]; 10 mg/kg i.p. −30 min,−4%
same,NUMBER OF MARBLES COVERED BY SAWDUST mean ± s.e.m.,[4]; 10 mg/kg i.p. −30 min,22.7 ± 0.5
same,NUMBER OF MARBLES COVERED BY SAWDUST % change from control,[4]; 30 mg/kg i.p. −30 min,−63%
same,NUMBER OF MARBLES COVERED BY SAWDUST mean ± s.e.m.,[4]; 30 mg/kg i.p. −30 min,8.7 ± 2.9
same,marble burying behaviour (in words),[4]; highest dose tested (30 mg/kg) i.p.,clearly and significantly reduced marble burying behaviour
